Measurements taken from US11345710B2, “Imidazo[1,2-b]pyrimido[4,5-d]pyridazin-5(6H)-ones and the use thereof” (IMPACT THERAPEUTICS (SHANGHAI), INC, priority 2017, dated 2022).
Like-named read-outs stand apart in the source and are kept apart here.

What was measured:
[1] = test system: LoVo cells; experiment: MTT based cell viability assay on LoVo cells; conditions: for IC50: Homo sapiens, 72 h, read-out: IC50, growth inhibition on LoVo cells
Method: Determination of the Cell Growth Inhibiting Activity of 6-(2,6-dichlorophenyl)-2-((4-(4-methylpiperazin-1-yl)phenyl)amino)imidazo[1,2-b]pyrimido[4,5-d]pyridazin-5(6H)-one and Analogs Thereof on LoVo Cells Using a MTT Based Cell Viability Assay
The thawed LoVo cells were cultured and passaged to the third generation, and the growth state was good and the confluence was about 90%, which began to be used in the experiment. The LoVo cells were digested with trypsin, centrifuged at 800 rpm for 5 min, the supernatant was discarded, resuspended with fresh culture medium, and counted. 6000 Cells are seeded to each well of a 96-well cell culture plate. The cells were incubated at 37° C. in a 5% CO2 cell culture incubator overnight. The tested sample (including the tested compound and the reference compound AZD1775) was diluted continuously to 8 concentrations (the last concentration was negative control of DMSO) with a 1:3 and 1:10 dilution in DMSO respectively: 10 μM, 3.3 μM, 1 μM, 0.33 μM, 0.1 μM, 0.033 μM, 0.01 μM, 0 μM (the final concentration of DMSO was 1%). 5 μL of each concentration was added to 120 μL of culture medium (25 times diluted), and the mixture was shaken well. The overnight cells were taken and the culture medium was removed, 195 μL of fresh culture medium was added to each well, and 5 μL of diluted culture medium containing the corresponding concentration of the tested sample was added respectively, and the culture plate was then placed in the 5% CO2 cell culture incubator at 37° C. for 3 d. After removing the original solution and adding 100 μL of fresh serum-free DMEM culture medium containing MTT (0.5 mg/mL) per well, the culture was continued. The original solution was removed after 4 hrs and 100 μl DMSO was added to each well. The 96-well cell culture plates were shaken away from light for 10 min and readed in a multifunctional reader at 552/630/690 nm to give absorption values (OD values). The data were analyzed using a graphic software (Graph Pad Prism 5.0) and the inhibitory activity of the compound on cell proliferation was plotted in terms of cell survival and compound concentration. The IC50 values were fitted by the S-shaped dose-response curve equation as follows: Y=100/(1+10^(Log C−Log IC50)), where C was the concentration of testing compounds.

[2] = test system: NCI-H1299 cells; experiment: MTT based cell viability assay on NCI-H1299 cells; conditions: for IC50: Homo sapiens, read-out: IC50, growth inhibition on NCI-H1299 cells
Method: Determination of the Cell Growth Inhibiting Activity of 6-(2,6-dichlorophenyl)-2-((4-(4-methylpiperazin-1-yl)phenyl)amino)imidazo[1,2-b]pyrimido[4,5-d]pyridazin-5(6H)-one and Analogs on NCI-H1299 Cells Using a MTT Based Cell Viability Assay
The thawed NCI-H1299 cells were cultured and passaged to the third generation, and the growth state was good and the confluence was about 90%, which began to be used in the experiment. The NCI-H1299 cells were digested with trypsin, centrifuged at 800 rpm for 5 min, the supernatant was discarded, resuspended with fresh culture medium, and counted. 1000 Cells are seeded to each well of a 96-well plate. The cells are incubated at 37° C. in a 5% CO2 cell culture incubator overnight. The tested sample (including the tested compound and the reference compound AZD1775) was diluted continuously to 8 concentrations (the last concentration was negative control of DMSO) with a 1:3 and 1:10 dilution in DMSO respectively: 10 μM, 3.3 μM, 1 μM, 0.33 μM, 0.1 μM, 0.033 μM, 0.01 μM, 0 μM (the final concentration of DMSO was 1%). 5 μL of each concentration was added to 120 μL of culture medium (25 times diluted), and the mixture was shaken well. The overnight cells were taken and the culture medium was removed, 195 μL of fresh culture medium was added to each well, and 5 μL of diluted culture medium containing the corresponding concentration of the tested sample was added respectively, and the culture plate was then placed in the 5% CO2 cell culture incubator at 37° C. for 3 d. After removing the original solution and adding 100 μL of fresh serum-free DMEM culture medium containing MTT (0.5 mg/mL) per well, the culture was continued. The original solution was removed after 4 hrs and 100 μl DMSO was added to each well. The 96-well cell culture plates were shaken away from light for 10 min and readed in a multifunctional reader at 552/630/690 nm to give absorption values (OD values). The data were analyzed using a graphic software (Graph Pad Prism 5.0) and the inhibitory activity of the compound on cell proliferation was plotted in terms of cell survival and compound concentration. The IC50 values were fitted by the S-shaped dose-response curve equation as follows: Y=100/(1+10^(Log C−Log IC50)), where C was the concentration of testing compounds.

[3] = target: Wee1 kinase (h) (Homo sapiens, UniProt P30291); experiment: Wee1 kinase (h) detection method, [γ-33P]-ATP filter assay; type: biochemical; conditions: for Inh. (%) of Wee1 kinase: 10 μM ATP, 40 minutes at room temperature
Sequence of Wee1 kinase (h) (P30291 whole entry): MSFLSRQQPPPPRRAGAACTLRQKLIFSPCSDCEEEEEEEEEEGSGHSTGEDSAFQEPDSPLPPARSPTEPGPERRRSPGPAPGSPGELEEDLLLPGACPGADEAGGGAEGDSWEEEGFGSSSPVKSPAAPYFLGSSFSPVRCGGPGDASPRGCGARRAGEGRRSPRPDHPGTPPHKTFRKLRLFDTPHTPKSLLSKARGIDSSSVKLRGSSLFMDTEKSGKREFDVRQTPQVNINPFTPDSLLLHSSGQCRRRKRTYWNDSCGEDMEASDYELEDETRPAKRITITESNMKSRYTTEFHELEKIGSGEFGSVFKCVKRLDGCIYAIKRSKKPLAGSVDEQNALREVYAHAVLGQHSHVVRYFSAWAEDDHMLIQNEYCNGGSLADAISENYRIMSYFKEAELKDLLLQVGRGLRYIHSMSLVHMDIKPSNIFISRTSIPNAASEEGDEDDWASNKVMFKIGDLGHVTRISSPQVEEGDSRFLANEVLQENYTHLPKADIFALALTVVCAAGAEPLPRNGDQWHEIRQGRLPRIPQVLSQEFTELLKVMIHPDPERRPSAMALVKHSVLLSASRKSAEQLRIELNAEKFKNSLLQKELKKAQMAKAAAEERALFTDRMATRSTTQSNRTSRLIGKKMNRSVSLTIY
Method: Wee1 kinase (h) was incubated with 20 mM Tris/HCl pH 8.5, 0.2 mM EDTA, 500 μM […], 10 mM MgAcetate and 10 μM [γ-^33P]-ATP. Then the stock solution of all compounds under test with 50× concentration in 100% DMSO was added to make the final concentration of 1/0.1/0.01 μM, and then mixed the mixture well. The reaction was initiated by the addition of the Mg/ATP mix. After incubation for 40 minutes at room temperature, the reaction was stopped by the addition of phosphoric acid to a concentration of 0.5%. 10 μL of the reaction liquor was then spotted onto a P30 filtermat and washed four times in 0.425% phosphoric acid and once in methanol prior to drying and scintillation counting. Each compound sample was duplicated in duplicate. The negative control was lack of all the components of Wee1 enzyme, and the positive was addition of 30% phosphoric acid to terminate the reaction. The Wee1 inhibitor AZD1775 was detected at 10/0.01 μM at the same experiment condition.

[4] = 72 h, NCI-H1299 cells, 3 d, MTT

Inh. (%) of Wee1 kinase ([3]; C 1 μm) [%]	IC50 ([1]; LoVo cells, 3 d, MTT) [µM]	IC50 [2, 4] [µM]	SMILES	IC50 ([1]; LoVo) [µM]	IC50 ([2]; NCI-H1299, 72 h) [µM]	other results
93	0.406	0.652	Cc1cc(Nc2ncc3c(=O)n(-c4c(F)cccc4F)n4ccnc4c3n2)ccc1N1CCN(C)CC1 [Example 2, 6-(2,6-difluorophenyl)-2-((3-methyl-4-(4-methylpiperazin-1-yl)phenyl)amino)imidazo[1,2-b]pyrimido[4,5-d]pyridazin-5(6H)-one]			
92	0.831	0.781	CN1CCN(c2ccc(Nc3ncc4c(=O)n(-c5c(F)cccc5Cl)n5ccnc5c4n3)cc2)CC1 [Example 7, 6-(2-chloro-6-fluorophenyl)-2-((4-(4-methylpiperazin-1-yl)phenyl)amino)imidazo[1,2-b]pyrimido[4,5-d]pyridazin-5(6H)-one]			
97	0.213	0.284	Cc1cc(Nc2ncc3c(=O)n(-c4c(F)cccc4Cl)n4ccnc4c3n2)ccc1N1CCN(C)CC1 [Example 9, 6-(2-chloro-6-fluorophenyl)-2-((3-methyl-4-(4-methylpiperazin-1-yl)phenyl)amino)imidazo[1,2-b]pyrimido[4,5-d]pyridazin-5(6H)-one]			Inh. (%) of Wee1 kinase ([3]; C 0.01 μm): 14%
93	0.266	0.555	Cc1cc(Nc2ncc3c(=O)n(-c4c(F)cccc4Cl)n4ccnc4c3n2)cc(C)c1N1CCN(C)CC1 [Example 11, 6-(2-chloro-6-fluorophenyl)-2-((3,5-dimethyl-4-(4-methylpiperazin-1-yl)phenyl)amino)imidazo[1,2-b]pyrimido[4,5-d]pyridazin-5(6H)-one]			
	0.359	0.328	Cc1cc(Nc2ncc3c(=O)n(-c4c(F)cccc4Cl)n4ccnc4c3n2)ccc1N1C[C@@H](C)N(C)[C@@H](C)C1 [Example 24, 6-(2-chloro-6-fluorophenyl)-2-((3-methyl-4-((3S,5R)-3,4,5-trimethylpiperazin-1-yl)phenyl)amino)imidazo[1,2-b]pyrimido[4,5-d]pyridazin-5(6H)-one]			
			C[C@@H]1CN(c2ccc(Nc3ncc4c(=O)n(-c5c(Cl)cccc5Cl)n5ccnc5c4n3)cc2)C[C@H](C)N1C [Example 30, 6-(2,6-dichlorophenyl)-2-((4-((3S,5R)-3,4,5-trimethylpiperazin-1-yl)phenyl)amino)imidazo[1,2-b]pyrimido[4,5-d]pyridazin-5(6H)-one]	0.779	0.508	
			C[C@@H]1CN(c2ccc(Nc3ncc4c(=O)n(-c5c(Cl)cccc5Cl)n5ccnc5c4n3)cc2F)C[C@H](C)N1C [Example 31, 6-(2,6-dichlorophenyl)-2-((3-fluoro-4-((3S,5R)-3,4,5-trimethylpiperazin-1-yl)phenyl)amino)imidazo[1,2-b]pyrimido[4,5-d]pyridazin-5(6H)-one]	0.809	0.672	
			C[C@@H]1CN(c2ccc(Nc3ncc4c(=O)n(-c5c(Cl)cccc5Cl)n5ccnc5c4n3)cc2Cl)C[C@H](C)N1C [Example 32, 6-(2,6-dichlorophenyl)-2-((3-chloro-4-((3S,5R)-3,4,5-trimethylpiperazin-1-yl)phenyl)amino)imidazo[1,2-b]pyrimido[4,5-d]pyridazin-5(6H)-one]	0.679	0.515	
			Cc1cc(Nc2ncc3c(=O)n(-c4c(Cl)cccc4Cl)n4ccnc4c3n2)ccc1N1C[C@@H](C)N(C)[C@@H](C)C1 [Example 33, 6-(2,6-dichlorophenyl)-2-((3-methyl-4-((3S,5R)-3,4,5-trimethylpiperazin-1-yl)phenyl)amino)imidazo[1,2-b]pyrimido[4,5-d]pyridazin-5(6H)-one]	0.394	0.237	
			Cc1cc(Nc2ncc3c(=O)n(-c4c(Cl)cccc4Cl)n4ccnc4c3n2)ccc1C1CCN(C)CC1 [Example 41, 6-(2,6-dichlorophenyl)-2-((3-methyl-4-(1-methylpiperidin-4-yl)phenyl)amino)imidazo[1,2-b]pyrimido[4,5-d]pyridazin-5(6H)-one]	0.212	0.184	
	0.325	0.161	CCc1cn2c(n1)c1nc(Nc3ccc(N4CCN(C)CC4)c(C)c3)ncc1c(=O)n2-c1c(Cl)cccc1Cl [Example 60, 6-(2,6-dichlorophenyl)-2-((3-methyl-4-(4-methylpiperazin-1-yl)phenyl)amino)-9-ethylimidazo[1,2-b]pyrimido[4,5-d]pyridazin-5(6H)-one]			

SMILES	Inh. (%) of Wee1 kinase ([3]; C 1 μm) [%]	IC50 ([1]; LoVo cells, 3 d, MTT) [µM]	IC50 [2, 4] [µM]	IC50 ([1]; LoVo) [µM]	IC50 ([2]; NCI-H1299, 72 h) [µM]	other results
CN1CCN(c2ccc(Nc3ncc4c(=O)n(-c5c(Cl)cccc5Cl)n5ccnc5c4n3)cc2)CC1 [Example 1, 6-(2,6-dichlorophenyl)-2-((4-(4-methylpiperazin-1-yl)phenyl)amino)imidazo[1,2-b]pyrimido[4,5-d]pyridazin-5(6H)-one]	94			0.524	0.916	inhibitory effect on the growth of LoVo cells (summary in words) ([1]; MTT method): inhibitory effect; inhibitory effect on the growth of NCI-H1299 cell (summary in words) ([2]; MTT method): inhibitory effect; inhibitory effect on the activity of Wee1 kinase (summary in words) [3]: good inhibitory effect; Inh. (%) of Wee1 kinase ([3]; C 0.01 μm): 11%; Inh. (%) of Wee1 kinase ([3]; C 0.1 μm): 75%
Cc1cc(Nc2ncc3c(=O)n(-c4c(Cl)cccc4Cl)n4ccnc4c3n2)ccc1N1CCN(C)CC1 [Example 3, 6-(2,6-dichlorophenyl)-2-((3-methyl-4-(4-methylpiperazin-1-yl)phenyl)amino)imidazo[1,2-b]pyrimido[4,5-d]pyridazin-5(6H)-one]	96			0.236	0.178	Inh. (%) of Wee1 kinase ([3]; C 0.01 μm): 26%; Inh. (%) of Wee1 kinase ([3]; C 0.1 μm): 76%
Cc1cc(Nc2ncc3c(=O)n(-c4c(Cl)cccc4Cl)n4ccnc4c3n2)cc(C)c1N1CCN(C)CC1 [Example 4, 6-(2,6-dichlorophenyl)-2-((3,5-dimethyl-4-(4-methylpiperazin-1-yl)phenyl)amino)imidazo[1,2-b]pyrimido[4,5-d]pyridazin-5(6H)-one]	96			0.339	0.383	Inh. (%) of Wee1 kinase ([3]; C 0.01 μm): 16%; Inh. (%) of Wee1 kinase ([3]; C 0.1 μm): 73%
